In patent US20260191861A1, “INFLAMMASOME AND VEGF INHIBITION FOR RETINAL VASCULAR DISEASES” (University of Virginia Patent Foundation, priority 2022, published 2026):

Key:
[1] = tested on: participants with diabetic macular edema; experiment: Systemic and ocular adverse events in the lamivudine versus placebo trial; type: in vivo, human
Description: If the participant developed high-risk proliferative diabetic retinopathy or had to undergo any ocular surgery during the study period, they would be excluded. Patients were monitored for adverse events by the assessing physician, and new laboratory tests could be performed at the physician's discretion.
(§1) Secondary outcomes included the change in central subfield thickness, the percentage of eyes with an improvement in VALS of 15 or more, the correlation between improvements in visual acuity and central subfield thickness, and systemic and ocular adverse events. Change in central subfield thickness was estimated using mixed-effects models, similar to the VALS analysis. To analyze a VALS improvement of at least 15 letters, logistic regression using generalized estimating equations (GEEs) was specified with an exchangeable correlation matrix. Model-based contrasts were estimated to make pairwise treatment comparisons.

[2] = tested on: participants with diabetic macular edema; experiment: Visual acuity (VALS) compared with synthetic controls from the DRCR.net Protocol T study (IPTW, propensity score matching, GEE); type: in vivo, human; details: for Model-based contrast: change in visual acuity, Lamivudine vs. Aflibercept / Model-based contrast: change in visual acuity, Lamivudine vs. Bevacizumab / Model-based contrast: change in visual acuity, Lamivudine vs. Ranibizumab: IPTW model; for Mixed-effect model: change in visual acuity from baseline, Lamivudine vs Placebo / Mixed-effect model: change in visual acuity from baseline, Lamivudine vs. Aflibercept / Mixed-effect model: change in visual acuity from baseline, Lamivudine vs. Bevacizumab / Mixed-effect model: change in visual acuity from baseline, Lamivudine vs. Ranibizumab: propensity score matching
Description: The second analysis included participants from the lamivudine versus placebo trial, along with a synthetic comparator created using data from the DRCR.net Protocol T study. The source of the data is DRCR.net (2018) A Comparative Effectiveness Study of Intravitreal Aflibercept, Bevacizumab and Ranibizumab for Diabetic Macular Edema, retrieved from https://public.jaeb.org/drcrnet/stdy/download/206. The analyses, content, and conclusions presented herein are solely the responsibility of the authors and have not been reviewed or approved by DRCR.net.
Inclusion criteria for participants from the DRCR.net Protocol T study were based on their similarity to the lamivudine versus placebo trial design. This involved selecting only patients with type 2 diabetes, study eyes with a baseline VALS<69, and complete follow-up visual acuity measurements at weeks 4 and 8.
Propensity score methods were used to select DRCR.net Protocol T study participants similar to lamivudine-treated patients. Inverse probability treatment weights (IPTW) and propensity score matching were used. To estimate the IPTW weights, a multinomial logistic regression was used to estimate propensity scores using important predictors including baseline visual acuity and baseline central subfield thickness along with age, gender, and duration of diabetes. Weights were calculated as the reciprocal of the estimated propensity score of the actual treatment received. Weights were then truncated at the 99th percentile. For the propensity score matched analysis, lamivudine-treated patients were matched to each DRCR.net Protocol T treatment arm (aflibercept, bevacizumab, ranibizumab) and placebo group, separately. Due to the limited sample size for matching within each group, propensity score models included the most important predictors of acuity change including baseline visual acuity, age and duration of diabetes.
For the IPTW analysis, a mixed-effects weighted model was fit with subject-specific random effects. […] The model's estimates, confidence intervals (CI), and P values were reported for each predictor. Additionally, model-based contrasts were conducted to compare the change in VALS from baseline between lamivudine and the Protocol T treatments.
For each propensity score matched group (e.g., lamivudine-bevacizumab, lamivudine-aflibercept), a mixed effect model was fit estimating the change in visual acuity from baseline. Subject specific random effect was included along with fixed effect predictors: treatment group, baseline VALS, central subfield thickness, eye (left vs right), age, sex, race and type 2 diabetes duration.
as §1

[3] = ocular adverse event, of 16 eyes
[4] = systemic adverse event, of 10 subjects

Nc1ccn([C@@H]2CS[C@H](CO)O2)c(=O)n1 [Lamivudine]
Endophthalmitis - (%) [1, 3]: (0%) | Endophthalmitis - N [1, 3]: 0 | Increase in intraocular pressure ≥10 mm Hg from baseline - (%) [1, 3]: (0%) | Increase in intraocular pressure ≥10 mm Hg from baseline - N [1, 3]: 0 | Intraocular inflammation* - (%) [1, 3]: (0%) | Intraocular inflammation* - N [1, 3]: 0 | Retinal detachment - (%) [1, 3]: (0%) | Retinal detachment - N [1, 3]: 0 | Subconjunctival hemorrhage - (%) [1, 3]: (18.8%) | Subconjunctival hemorrhage - N [1, 3]: 3 | Traumatic cataract - (%) [1, 3]: (0%) | Traumatic cataract - N [1, 3]: 0 | Vitreous hemorrhage - (%) [1, 3]: (0%) | Vitreous hemorrhage - N [1, 3]: 0 | Abdominal pain - (%) [1, 4]: (0%) | Abdominal pain - N [1, 4]: 0 | Alopecia - (%) [1, 4]: (0%) | Alopecia - N [1, 4]: 0 | Arthralgia - (%) [1, 4]: (0%) | Arthralgia - N [1, 4]: 0 | Diarrhea - (%) [1, 4]: (10%) | Diarrhea - N [1, 4]: 1 | Disphoresis - (%) [1, 4]: (10%) | Disphoresis - N [1, 4]: 1 | Fatigue - (%) [1, 4]: (10%) | Fatigue - N [1, 4]: 1 | Headache - (%) [1, 4]: (20%) | Headache - N [1, 4]: 2 | Myalgia - (%) [1, 4]: (0%) | Myalgia - N [1, 4]: 0 | Nausea or vomiting - (%) [1, 4]: (20%) | Nausea or vomiting - N [1, 4]: 2 | Pruritus - (%) [1, 4]: (20%) | Pruritus - N [1, 4]: 2 | Skin rash - (%) [1, 4]: (0%) | Skin rash - N [1, 4]: 0 | ocular adverse events ([1]; week 4): no ocular adverse events | subconjunctival hemorrhage after intravitreous injection ([1]; week 8): three | Model-based contrast: change in visual acuity, Lamivudine vs. Aflibercept [2]: 3.73 | Model-based contrast: change in visual acuity, Lamivudine vs. Bevacizumab [2]: 6.83 | Model-based contrast: change in visual acuity, Lamivudine vs. Ranibizumab [2]: 5.04 | Mixed effect model: change from baseline visual acuity, treatment estimate (ref: Placebo) ([2]; IPTW model with synthetic controls): 12.15 | Mixed effect model: change from baseline visual acuity, treatment estimate (ref: Placebo) ([2]; IPTW model with synthetic controls, listed as lamivudine): 12.2 | Model-based contrast: change in visual acuity, Lamivudine vs. Aflibercept ([2]; listed as lamivudine): 3.7 | Model-based contrast: change in visual acuity, Lamivudine vs. Bevacizumab ([2]; listed as lamivudine): 6.8 | Model-based contrast: change in visual acuity, Lamivudine vs. Ranibizumab ([2]; listed as lamivudine): 5.0 | Mixed effect model: change from baseline visual acuity, treatment estimate (ref: Placebo) ([2]; Original (unweighted) model with synthetic controls): 11.19 | Mixed-effect model: change in visual acuity from baseline, Lamivudine vs Placebo [2]: 10.88 | Mixed-effect model: change in visual acuity from baseline, Lamivudine vs. Aflibercept [2]: 2.33 | Mixed-effect model: change in visual acuity from baseline, Lamivudine vs. Bevacizumab [2]: 8.95 | Mixed-effect model: change in visual acuity from baseline, Lamivudine vs. Ranibizumab [2]: 7.24 | Mixed-effect model: change in visual acuity from baseline, Lamivudine vs Placebo ([2]; listed as lamivudine): 10.9 | Mixed-effect model: change in visual acuity from baseline, Lamivudine vs. Aflibercept ([2]; listed as lamivudine): 2.3 | Mixed-effect model: change in visual acuity from baseline, Lamivudine vs. Bevacizumab ([2]; listed as lamivudine): 9 | Mixed-effect model: change in visual acuity from baseline, Lamivudine vs. Ranibizumab ([2]; listed as lamivudine): 7.3
